Assay results as given in patent publication US9067937B2 (priority 2012, dated 2015).
Where a name gives a salt, the structure may show the parent alone. Read-outs that look alike come from different tables or passages of the source.

Legend:
MELK = MELK (Homo sapiens, UniProt Q14680); assay: Kinase assay (IMAP fluorescence polarization, FITC-labeled histone H3 peptide); format: biochemical; settings: 50 micro-M ATP
Procedure: MELK activity was determined in the presence or absence of compounds using fluorescein isothiocyanate-labeled (FITC-labeled) histone H3 peptide as a substrate. […] The serially diluted compounds, 0.8 ng/micro-L […] (Carna Biosciences) and 100 nM FITC-labeled histone H3 peptide were reacted in a reaction buffer (20 mM HEPES, 0.01% Tween-20, 0.3 mM MgCl2, 2 mM dithiothreitol, 50 micro-M ATP, pH 7.4) at room temperature for 1 hour. The reaction was stopped by the addition of three fold assay volume of progressive binding solution. […] IC50 values were calculated by nonlinear four parameter fit using SigmaPlot, version 10.0 (Systat Software, Inc.).

HT1197 cells = assay: Cell-based assay, anti-proliferative activity, MELK-negative control (Cell Counting Kit-8, 72 hours); set-up: species or system human; settings: read-out: IC50 (μM) (HTll97)
Procedure: (§1) 100 micro-L of cell suspension was seeded onto 96-well microtiter plate (ViewPlate-96FTC, PerkinElmer). The initial cell concentration of 22Rv1, T47D, A549, DU4475, and HT1197 were 3,000 cells/well, 2,000 cells/well and 2,500 cells/well, respectively. Cellular growth was determined using Cell Counting Kit-8 (DOJINDO) at 72 hours after the exposure of the candidate inhibitors. […] Accurate IC50 values were calculated as described previously.

A549 cells = assay: Cell-based assay, anti-proliferative activity (Cell Counting Kit-8, 72 hours); set-up: species or system human; settings: read-out: IC50 (μM) (A549)
Procedure: as §1, with “Active candidate inhibitors against MELK were evaluated for their target-specific cytotoxicity using 22Rv1, T47D, A549, DU4475 and HT-1197 cells was used for negative control. 100” for “100”

DU4475 cells = assay: as above; set-up: species or system human; settings: read-out: IC50 (μM) (DU4475)
Procedure: as §1, with “Active candidate inhibitors against MELK were evaluated for their target-specific cytotoxicity using 22Rv1, T47D, A549, DU4475 and HT-1197 cells was used for negative control. 100” for “100”

T47D cells = assay: as above; set-up: species or system human; settings: read-out: IC50 (μM) (T47D)
Procedure: as §1, with “Active candidate inhibitors against MELK were evaluated for their target-specific cytotoxicity using 22Rv1, T47D, A549, DU4475 and HT-1197 cells was used for negative control. 100” for “100”

22Rv1 cells = assay: as above; set-up: species or system human; settings: read-out: IC50 (μM) (22Rvl)
Procedure: as §1, with “Active candidate inhibitors against MELK were evaluated for their target-specific cytotoxicity using 22Rv1, T47D, A549, DU4475 and HT-1197 cells was used for negative control. 100” for “100”

[1] = HT1197 cells (MELK-negative control), 72 hours

MELK, sequence (Q14680 whole entry, looked up): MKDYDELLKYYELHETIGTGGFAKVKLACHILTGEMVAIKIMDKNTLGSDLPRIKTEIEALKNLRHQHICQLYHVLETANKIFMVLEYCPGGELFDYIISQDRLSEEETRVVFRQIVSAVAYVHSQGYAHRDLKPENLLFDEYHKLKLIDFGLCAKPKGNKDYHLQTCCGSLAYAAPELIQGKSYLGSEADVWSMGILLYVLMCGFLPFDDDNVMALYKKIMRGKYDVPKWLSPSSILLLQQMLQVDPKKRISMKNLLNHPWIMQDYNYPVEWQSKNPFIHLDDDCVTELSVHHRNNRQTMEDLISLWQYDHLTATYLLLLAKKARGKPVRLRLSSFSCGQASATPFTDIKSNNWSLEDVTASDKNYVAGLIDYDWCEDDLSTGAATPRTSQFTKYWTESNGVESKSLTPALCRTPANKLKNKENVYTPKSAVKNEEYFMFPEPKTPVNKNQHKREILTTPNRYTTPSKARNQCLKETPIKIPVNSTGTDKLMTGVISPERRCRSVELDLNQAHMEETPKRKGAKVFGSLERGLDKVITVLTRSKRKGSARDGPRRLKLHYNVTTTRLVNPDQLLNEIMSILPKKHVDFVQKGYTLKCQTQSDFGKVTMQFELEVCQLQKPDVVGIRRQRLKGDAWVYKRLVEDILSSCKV

| Compound | IC50 (MELK) | IC50 (HT1197 cells; [1]) | IC50 (A549 cells; A549 cells, 72 hours) | IC50 (DU4475 cells; DU4475 cells, 72 hours) | IC50 (T47D cells; T47D cells, 72 hours) | IC50 (22Rv1 cells; 22Rv1 cells, 72 hours) | IC50 (HT1197 cells; Homo sapiens, HT1197, 72 h) | IC50 (A549 cells; Homo sapiens, A549, 72 h) | IC50 (DU4475 cells; Homo sapiens, DU-4475, 72 h) | IC50 (T47D cells; Homo sapiens, T47D, 72 h) | IC50 (22Rv1 cells; Homo sapiens, 22Rv1, 72 h) |
| --- | --- | --- | --- | --- | --- | --- | --- | --- | --- | --- | --- |
| 1-[6-(3,5-Dichloro-4-hydroxyphenyl)-4-(trans-4-hydroxycyclohexylamino)-1,5-naphthyridin-3-yl]-ethanone hydrochloride [Example 91] | 0.015 µM | 0.33 µM | 0.048 µM | 0.016 µM | 0.038 µM | 0.072 µM | – | – | – | – | – |
| 1-[6-(3-Chloro-5-fluoro-4-hydroxyphenyl)-4-(trans-4-hydroxycyclohexylamino)-1,5-naphthyridin-3-yl]ethanone hydrochloride [Example 92] | 0.012 µM | 0.53 µM | 0.053 µM | 0.018 µM | 0.036 µM | 0.061 µM | – | – | – | – | – |
| CC(=O)c1cnc2ccc(Cl)nc2c1N[C@H]1CC[C@H](CN(C)C)CC1 [Example 1, 1-(6-Chloro-4-{trans-4-[(dimethylamino)methyl]cyclohexylamino}-1,5-naphthyridin-3-yl)-ethanone] | 0.31 µM | – | – | – | – | – | 10 µM | 2.7 µM | 2.5 µM | 5.3 µM | 5 µM |
| CC(=O)c1cnc2ccc(-c3cc(Cl)c(O)c(Cl)c3)nc2c1N[C@H]1CC[C@H](N(C)C)CC1 [Example 2, 1-{6-(3,5-Dichloro-4-hydroxyphenyl)-4-[trans-4-(dimethylamino)cyclohexylamino]-1,5-naphthyridin-3-yl}ethanone dihydrochloride] | 0.0003 µM | – | – | – | – | – | 0.19 µM | 0.004 µM | 0.0015 µM | 0.0018 µM | 0.0032 µM |
| CC(=O)c1cnc2ccc(-c3cc(F)c(O)c(Cl)c3)nc2c1N[C@H]1CC[C@H](N(C)C)CC1 [Example 3, 1-{6-(3-Chloro-5-fluoro-4-hydroxyphenyl)-4-[trans-4-(dimethylamino)cyclohexylamino]-1,5-naphthyridin-3-yl}ethanone dihydrochloride] | 0.0012 µM | – | – | – | – | – | 0.39 µM | 0.0091 µM | 0.0033 µM | 0.0026 µM | 0.006 µM |
| CN(C)C[C@H]1CC[C@H](Nc2c(C(=O)C3CC3)cnc3ccc(-c4cc(Cl)c(O)c(Cl)c4)nc23)CC1 [Example 4, Cyclopropyl(6-(3,5-dichloro-4-hydroxyphenyl)-4-{trans-4-[(dimethylamino)methyl]-cyclohexylamino}-1,5-naphthyridin-3-yl)methanone dihydrochloride] | 0.0005 µM | – | – | – | – | – | 0.036 µM | 0.0062 µM | 0.0026 µM | 0.0055 µM | 0.0064 µM |
| CN(C)C[C@H]1CC[C@H](Nc2c(C(=O)C3CC3)cnc3ccc(-c4cc(F)c(O)c(Cl)c4)nc23)CC1 [Example 5, (6-(3-Chloro-5-fluoro-4-hydroxyphenyl)-4-{trans-4-[(dimethylamino)methyl]cyclohexyl-amino}-1,5-naphthyridin-3-yl)(cyclopropyl)methanone dihydrochloride] | 0.0008 µM | – | – | – | – | – | 0.018 µM | 0.0061 µM | 0.003 µM | 0.0029 µM | 0.0057 µM |
| CC(=O)c1cnc2ccc(-c3cc(F)c(O)c(Cl)c3)nc2c1N[C@H]1CC[C@H](CN(C)C)CC1 [Example 7, 1-{6-(3-Chloro-5-fluoro-4-hydroxyphenyl)-4-({trans-4-[(dimethylamino)methyl]cyclohexyl}-amino)-1,5-naphthyridin-3-yl}ethanone dihydrochloride] | 0.0013 µM | – | – | – | – | – | 0.11 µM | 0.0097 µM | 0.0036 µM | 0.0035 µM | 0.0061 µM |
| COc1cc(-c2ccc3ncc(C(C)=O)c(N[C@H]4CC[C@H](CN(C)C)CC4)c3n2)cc(Cl)c1O [Example 8, 1-(6-(3-Chloro-4-hydroxy-5-methoxyphenyl)-4-{trans-4-[(dimethylamino)methyl]cyclohexyl-amino}-1,5-naphthyridin-3-yl)ethanone dihydrochloride] | 0.0015 µM | – | – | – | – | – | 0.24 µM | 0.024 µM | 0.0064 µM | 0.013 µM | 0.044 µM |
| CC(=O)c1cnc2ccc(-c3cc(Cl)c(O)c(Cl)c3)nc2c1N[C@H]1CC[C@H](CCN(C)C)CC1 [Example 9, 1-[6-(3,5-Dichloro-4-hydroxyphenyl)-4-({trans-4-[2-(dimethylamino)ethyl]cyclohexyl}amino)-1,5-naphthyridin-3-yl]ethanone dihydrochloride] | 0.0007 µM | – | – | – | – | – | 0.27 µM | 0.013 µM | 0.0055 µM | 0.0066 µM | 0.011 µM |
| CC(=O)c1cnc2ccc(-c3cc(F)c(O)c(Cl)c3)nc2c1N[C@H]1CC[C@H](CCN(C)C)CC1 [Example 10, 1-(6-(3-Chloro-5-fluoro-4-hydroxyphenyl)-4-{trans-4-[2-(dimethylamino)ethyl]-cyclohexylamino}-1,5-naphthyridin-3-yl)ethanone dihydrochloride] | 0.0014 µM | – | – | – | – | – | 0.2 µM | 0.012 µM | 0.0049 µM | 0.0039 µM | 0.01 µM |
| CC(=O)c1cnc2ccc(-c3ccc(O)c(OC(F)(F)F)c3)nc2c1N[C@H]1CC[C@H](CN(C)C)CC1 [Example 11, 1-(4-{trans-4-[(Dimethylamino)methyl]cyclohexylamino}-6-[4-hydroxy-3-(trifluoromethoxy)-phenyl]-1,5-naphthyridin-3-yl)ethanone dihydrochloride] | 0.0027 µM | – | – | – | – | – | 0.14 µM | 0.042 µM | 0.049 µM | 0.027 µM | 0.066 µM |
| [2H]C([2H])([2H])N(C[C@H]1CC[C@H](Nc2c(C(C)=O)cnc3ccc(-c4cc(Cl)c(O)c(Cl)c4)nc23)CC1)C([2H])([2H])[2H] [Example 28, 1-(6-(3,5-Dichloro-4-hydroxyphenyl)-4-(trans-4-((dimethylamino-d6)methyl)-cyclohexylamino)-1,5-naphthyridin-3-yl)ethanone dihydrochloride] | – | – | – | – | – | – | 0.14 µM | 0.006 µM | 0.0022 µM | 0.004 µM | 0.0052 µM |
| CC(=O)c1cnc2ccc(-c3cc(F)c(O)c(Cl)c3)nc2c1N[C@H]1CC[C@H](NC(=O)[C@@H]2CCCN2)CC1 [Example 76, (S)—N-{4-[3-Acetyl-6-(3-chloro-5-fluoro-4-hydroxyphenyl)-1,5-naphthyridin-trans-4-ylamino]-cyclohexyl}pyrrolidine-2-carboxamide dihydrochloride] | – | – | – | – | – | – | 8.7 µM | 0.32 µM | 0.019 µM | 0.03 µM | 0.073 µM |
| CC(=O)c1cnc2ccc(-c3cc(Cl)c(O)c(Cl)c3)nc2c1NC[C@H]1CC[C@H](N(C)C)CC1 [Example 89, dihydrochloride] | – | – | – | – | – | – | 0.9 µM | 0.041 µM | 0.0063 µM | 0.023 µM | 0.028 µM |
| CC(=O)c1cnc2ccc(-c3cc(Cl)c(O)c(Cl)c3)nc2c1N[C@H]1CC[C@@H](CN(C)C)CC1 [Example 94, 1-{6-(3,5-Dichloro-4-hydroxyphenyl)-4-({cis-4-[(dimethylamino)methyl]-cyclohexyl}amino)-1,5-naphthyridin-3-yl}ethanone dihydrochloride] | – | – | – | – | – | – | 0.25 µM | 0.039 µM | 0.0073 µM | 0.02 µM | 0.028 µM |
| CC(C)C(=O)c1cnc2ccc(-c3cc(Cl)c(O)c(Cl)c3)nc2c1N[C@H]1CC[C@H](CN(C)C)CC1 [Example 216, 1-[6-(3,5-dichloro-5-4-hydroxyphenyl)-4-({trans-4-[(dimethylamino)methyl]cyclohexyl}amino)-1,5-naphthyridin-3-yl]-2-methylpropan-1-one dihydrochloride] | 0.0019 µM | – | – | – | – | – | 0.025 µM | 0.012 µM | – | – | – |
| CC(C)C(=O)c1cnc2ccc(-c3cc(F)c(O)c(Cl)c3)nc2c1N[C@H]1CC[C@H](CN(C)C)CC1 [Example 217, dihydrochloride] | 0.0018 µM | – | – | – | – | – | 0.055 µM | 0.021 µM | – | – | – |
